For assay [1], the system named is E. coli (ATCC 25922). Kind of assay: Minimal Inhibitory Concentration (MIC) assay, E. coli. The format is cell-based. As to conditions: Escherichia coli, ATCC25922; E. coli ATCC 25922, CAMHB, 20 hours at 35° C.; read-out: MIC E. coli ATCC 25922. In short, it runs like this:
(§1)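 Broth microdilution in cation-adjusted Mueller Hinton broth, inoculum 5×10^5 CFU/mL, compounds 2-fold serially diluted from 10 mM DMSO stocks. Plates incubated 20 hours at 35° C in ambient air; MIC (μg/mL) is the lowest concentration preventing visible growth.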

For assay [2], the system named is K. pneumonia (ATCC 43816). The assay can be described thus: Minimal Inhibitory Concentration (MIC) assay, K. pneumonia. The format is cell-based. As to conditions: Klebsiella pneumoniae; K. pneumoniae ATCC43816, CAMHB, 20 hours at 35° C.; read-out: MIC K. pneumoniae ATCC43816. In short, it runs like this:
as §1

Assay [3] concerns the target Escherichia coli LpxH (UDP-2,3-diacylglucosamine hydrolase) (Escherichia coli (strain K12), UniProt P43341). The assay can be described thus: 50% Inhibitory Concentration (IC50) to LpxH, UMP/CMP-Glo Glycosyltransferase Assay kit. The class given is biochemical. Put shortly: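 LpxH hydrolysis of UDP-2,3-diacylglucosamine to lipid X and UMP; UMP produced is converted to ATP and quantified by luciferase luminescence (UMP/CMP-Glo). Inhibition taken from reduced light output.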

The record followed here is patent US20250011300A1, “PIPERAZINYLSULFONYLARYL COMPOUNDS FOR TREATMENT OF BACTERIAL INFECTIONS” (Hoffmann-La Roche Inc., priority 2021, published 2025).

What is called MIC is the smallest concentration in the dilution series that meets the test's criterion for growth inhibition. The IC50 is the concentration at which inhibition is half-maximal. A high value points to a need for much substance.

Values after ≈ are worked out from the molar mass of the structure shown. Some results are limits rather than exact numbers.

Sequence of Escherichia coli LpxH (UDP-2,3-diacylglucosamine hydrolase) (P43341 whole entry): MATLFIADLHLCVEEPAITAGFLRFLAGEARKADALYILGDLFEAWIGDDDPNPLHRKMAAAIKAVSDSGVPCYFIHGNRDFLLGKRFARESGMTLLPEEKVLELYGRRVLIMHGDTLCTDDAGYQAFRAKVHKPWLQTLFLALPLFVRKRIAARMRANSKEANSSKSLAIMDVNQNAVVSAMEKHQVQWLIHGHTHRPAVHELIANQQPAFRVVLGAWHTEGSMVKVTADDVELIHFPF

Regarding `NC(=O)[C@H]1CC[C@H](C(F)(F)c2cc(Cl)nc(N3CCN(S(=O)(=O)c4ccc(N5C[C@H](N)CC5=O)cc4)CC3)c2)CC1` [Example 120, Trans-4-[[2-[4-[4-[(4R)-4-amino-2-oxo-pyrrolidin-1-yl]phenyl]sulfonylpiperazin-1-yl]-6-chloro-4-pyridyl]-difluoro-methyl]cyclohexanecarboxamide], the MIC in assay [1] worked out at 0.96 µg/mL (≈ 1.57 µM); in assay [2], 0.48 µg/mL (≈ 0.785 µM). In addition, the IC50 in assay [3] was less than 3.27 nM.

Take `Cc1cc(C(F)(F)c2ccccc2)nc(N2CCN(S(=O)(=O)c3ccc(N4CC(N)CC4=O)cc3)CC2)n1` (stereo not drawn) [Example 76, 4-Amino-1-[4-[4-[4-[difluoro(phenyl)methyl]-6-methyl-pyrimidin-2-yl]piperazin-1-yl]sulfonylphenyl]pyrrolidin-2-one]: the MIC in assay [1] came out at 0.51 µg/mL (≈ 0.94 µM); in assay [2] it was 1.03 µg/mL (≈ 1.9 µM). This compound gave an IC50 in assay [3] of 27.6 nM.

Consider `NC1CC(=O)N(c2ccc(S(=O)(=O)N3CCN(c4cc(C(F)(F)C5CCOC5)cc(Cl)n4)CC3)cc2)C1` (stereo not drawn) [Example 96, 4-Amino-1-[4-[4-[6-chloro-4-[difluoro(tetrahydrofuran-3-yl)methyl]-2-pyridyl]piperazin-1-yl]sulfonylphenyl]pyrrolidin-2-one], for which the MIC in assay [1] stood at 3.48 µg/mL (≈ 6.26 µM); in assay [2] it was 1.74 µg/mL (≈ 3.13 µM). Besides, the IC50 in assay [3] is 3.6 nM.

On to `O=C1CC(N2CCN[C@H](CO)C2)CN1c1ccc(S(=O)(=O)N2CCN(c3cc(C(F)(F)F)cc(Cl)n3)CC2)cc1` (stereo partly drawn) [Example 53, 1-[4-[4-[6-Chloro-4-(trifluoromethyl)-2-pyridyl]piperazin-1-yl]sulfonylphenyl]-4-[(3S)-3-(hydroxymethyl)piperazin-1-yl]pyrrolidin-2-one], for which the MIC in assay [1] was determined as 2 µg/mL (≈ 3.32 µM); in assay [2], 3 µg/mL (≈ 4.97 µM). The same compound had an IC50 in assay [3] of 6.63 nM.

In the case of `N[C@@H]1CC(=O)N(c2ccc(S(=O)(=O)N3CCN(c4cc(C(F)(F)[C@H]5CNCCO5)cc(Cl)n4)CC3)cc2)C1` [Example 105, (4R)-4-amino-1-[4-[4-[6-chloro-4-[difluoro-[(2R)-morpholin-2-yl]methyl]-2-pyridyl]piperazin-1-yl]sulfonylphenyl]pyrrolidin-2-one], the MIC in assay [1] and in assay [2] was 1.79 µg/mL (≈ 3.13 µM) throughout. In addition, in assay [3], inhibition was half-maximal at 5.25 nM (IC50).

With `NCC1CN(C2CC(=O)N(c3ccc(S(=O)(=O)N4CCN(c5cc(C(F)(F)F)cc(Cl)n5)CC4)cc3)C2)C1` (stereo not drawn) [Example 49, 4-[3-(Aminomethyl)azetidin-1-yl]-1-[4-[4-[6-chloro-4-(trifluoromethyl)-2-pyridyl]piperazin-1-yl]sulfonylphenyl]pyrrolidin-2-one], the results for the minimal inhibitory concentration (MIC) in assay [1] and in assay [2] were 3.87 µg/mL (≈ 6.75 µM) and 7.74 µg/mL (≈ 13.5 µM), respectively. In addition, the IC50 in assay [3] is 82 nM.

Regarding `O=C1OC(CNC2CCNC2)CN1c1ccc(S(=O)(=O)N2CCN(c3cc(C(F)(F)F)cc(Cl)n3)CC2)cc1` (stereo not drawn) [Example 34, 3-[4-[4-[6-Chloro-4-(trifluoromethyl)-2-pyridyl]piperazin-1-yl]sulfonylphenyl]-5-[(pyrrolidin-3-ylamino)methyl]oxazolidin-2-one], the MIC in assay [1] and in assay [2] was 4.39 µg/mL (≈ 7.45 µM) throughout. The compound also had an IC50 in assay [3] of 27.2 nM.

Consider `NCCN1CCC[C@H]2OC(=O)N(c3ccc(S(=O)(=O)N4CCN(c5cc(C(F)(F)F)cc(Cl)n5)CC4)cc3)[C@H]2C1` [Example 25, (3aS,8aR)-5-(2-aminoethyl)-3-[4-[4-[6-chloro-4-(trifluoromethyl)-2-pyridyl]piperazin-1-yl]sulfonylphenyl]-3a,4,6,7,8,8a-hexahydrooxazolo[4,5-c]azepin-2-one], for which the MIC in assay [1] and in assay [2] was 2.6 µg/mL (≈ 4.31 µM) throughout. The IC50 in assay [3] was 24.9 nM.

For the compound `NCC1CN(c2ccc(S(=O)(=O)N3CCN(c4cc(C(F)(F)c5ccccc5)cc(Cl)n4)CC3)cc2)C(=O)O1` (stereo not drawn) [Example 88, 5-(Aminomethyl)-3-[4-[4-[6-chloro-4-[difluoro(phenyl)methyl]-2-pyridyl]piperazin-1-yl]sulfonylphenyl]oxazolidin-2-one], the values for the MIC in assay [1] and in assay [2] were 0.26 µg/mL (≈ 0.45 µM) and 0.53 µg/mL (≈ 0.917 µM), respectively. This compound also showed a half-inhibitory concentration (IC50) in assay [3] of 13.8 nM.

Regarding `NC1CC(=O)N(c2ccc(S(=O)(=O)N3CCN(c4cc(C(F)F)cc(Cl)n4)CC3)cc2)C1` (stereo not drawn) [Example 68, 4-Amino-1-[4-[4-[6-chloro-4-(difluoromethyl)-2-pyridyl]piperazin-1-yl]sulfonylphenyl]pyrrolidin-2-one], the values for the MIC in assay [1] and in assay [2] were 2.59 µg/mL (≈ 5.33 µM) and 10.3 µg/mL (≈ 21.3 µM), respectively. This compound also gave an IC50 in assay [3] of 259 nM.

Regarding `NC1CC(=O)N(c2ccc(S(=O)(=O)N3CCN(c4cc(C(F)(F)C5CCCOC5)cc(Cl)n4)CC3)cc2)C1` (stereo not drawn) [Example 99, 4-Amino-1-[4-[4-[6-chloro-4-[difluoro(tetrahydropyran-3-yl)methyl]-2-pyridyl]piperazin-1-yl]sulfonylphenyl]pyrrolidin-2-one], the minimal inhibitory concentration (MIC) in assay [1] stood at 4.01 µg/mL (≈ 7.03 µM); in assay [2], 0.89 µg/mL (≈ 1.56 µM). Also, the IC50 in assay [3] is less than 3.51 nM.

Regarding `CO[C@@H]1OC(C2OC(=O)N(c3ccc(S(=O)(=O)N4CCN(c5cc(C(F)(F)F)cc(Cl)n5)CC4)cc3)C2C)[C@@H](O)[C@H]1O` (stereo partly drawn) [Example 22, 3-[4-[4-[6-Chloro-4-(trifluoromethyl)-2-pyridyl]piperazin-1-yl]sulfonylphenyl]-5-[(3S,4R,5R)-3,4-dihydroxy-5-methoxy-tetrahydrofuran-2-yl]-4-methyl-oxazolidin-2-one], the minimal inhibitory concentration (MIC) in assay [1] and in assay [2] was 1.99 µg/mL (≈ 3.12 µM) in each case. Moreover, in assay [3], the IC50 was less than 3.14 nM.

On to `O=C1O[C@H]2CCNC[C@H]2N1c1ccc(S(=O)(=O)N2CCN(c3cc(C(F)(F)F)cc(Cl)n3)CC2)cc1` [Example 16, (3aR,7aS)-3-[4-[4-[6-chloro-4-(trifluoromethyl)-2-pyridyl]piperazin-1-yl]sulfonylphenyl]-3a,4,5,6,7,7a-hexahydrooxazolo[4,5-c]pyridin-2-one], for which the MIC in assay [1] and in assay [2] was 1.03 µg/mL (≈ 1.89 µM) throughout. In addition, the concentration for half-maximal inhibition (IC50) in assay [3] was 38.5 nM.

As to `NC1CN(C2CC(=O)N(c3ccc(S(=O)(=O)N4CCN(c5cc(C(F)(F)F)cc(Cl)n5)CC4)cc3)C2)C1` (stereo not drawn) [Example 51, 4-(3-Aminoazetidin-1-yl)-1-[4-[4-[6-chloro-4-(trifluoromethyl)-2-pyridyl]piperazin-1-yl]sulfonylphenyl]pyrrolidin-2-one], the MIC in assay [1] worked out at 3.78 µg/mL (≈ 6.76 µM); in assay [2], 15.1 µg/mL (≈ 27.1 µM). In addition, the IC50 in assay [3] is 53.7 nM.

As to `NC1CC(=O)N(c2ccc(S(=O)(=O)N3CCN(c4cc(C(F)(F)c5ncccn5)cc(Cl)n4)CC3)cc2)C1` (stereo not drawn) [Example 94, 4-Amino-1-[4-[4-[6-chloro-4-[difluoro(pyrimidin-2-yl)methyl]-2-pyridyl]piperazin-1-yl]sulfonylphenyl]pyrrolidin-2-one], the MIC in assay [1] and in assay [2] was 3.53 µg/mL (≈ 6.26 µM) throughout. Further, in assay [3], it took 186 nM to reach half-maximal inhibition (IC50).

On to `N[C@@H]1CC(=O)N(c2ccc(S(=O)(=O)N3CCN(c4cc(C(F)(F)[C@@H]5CCCNC5)cc(Cl)n4)CC3)cc2)C1` [Example 107, (4R)-4-amino-1-[4-[4-[6-chloro-4-[difluoro-[(3R)-3-piperidyl]methyl]-2-pyridyl]piperazin-1-yl]sulfonylphenyl]pyrrolidin-2-one], for which the values for the MIC in assay [1] and in assay [2] were 2.85 µg/mL (≈ 5.01 µM) and 5.7 µg/mL (≈ 10 µM), respectively. In addition, the IC50 in assay [3] is 19.3 nM.

For the compound `N[C@@H]1CC(=O)N(c2ccc(S(=O)(=O)N3CCN(c4cc(C(F)(F)[C@H]5CCCNC5)cc(Cl)n4)CC3)cc2)C1` [Example 108, (4R)-4-amino-1-[4-[4-[6-chloro-4-[difluoro-[(3S)-3-piperidyl]methyl]-2-pyridyl]piperazin-1-yl]sulfonylphenyl]pyrrolidin-2-one], the minimal inhibitory concentration (MIC) in assay [1] and in assay [2] was 4.98 µg/mL (≈ 8.75 µM) each time. The compound also had a 50% inhibitory concentration (IC50) in assay [3] of 35.1 nM.

Consider `NC1CN(CC2CN(c3ccc(S(=O)(=O)N4CCN(c5cc(C(F)(F)F)cc(Cl)n5)CC4)cc3)C(=O)O2)C1` (stereo not drawn) [Example 31, 5-[(3-Aminoazetidin-1-yl)methyl]-3-[4-[4-[6-chloro-4-(trifluoromethyl)-2-pyridyl]piperazin-1-yl]sulfonylphenyl]oxazolidin-2-one], for which the results for the minimal inhibitory concentration (MIC) in assay [1] and in assay [2] were 2.15 µg/mL (≈ 3.74 µM) and 4.31 µg/mL (≈ 7.5 µM), respectively. The same compound had an IC50 in assay [3] of 6.96 nM.

As to `N[C@@H]1CC(=O)N(c2ccc(S(=O)(=O)N3CCN(c4cc(C(F)(F)[C@@H]5COCCO5)cc(Cl)n4)CC3)cc2)C1` [Example 102, (4R)-4-amino-1-[4-[4-[6-chloro-4-[[(2S)-1,4-dioxan-2-yl]-difluoro-methyl]-2-pyridyl]piperazin-1-yl]sulfonylphenyl]pyrrolidin-2-one], the MIC in assay [1] and in assay [2] was 0.89 µg/mL (≈ 1.56 µM) throughout. The same compound showed an IC50 in assay [3] of 10.5 nM.

Turning to `NCC1CC(=O)N(c2ccc(S(=O)(=O)N3CCN(c4cc(C(F)(F)F)cc(Cl)n4)CC3)cc2)C1` (stereo not drawn) [Example 2, 4-(Aminomethyl)-1-[4-[4-[6-chloro-4-(trifluoromethyl)-2-pyridyl]piperazin-1-yl]sulfonyl-phenyl]pyrrolidin-2-one], the MIC is 1.98 µg/mL (≈ 3.82 µM) in assay [1] and 3.95 µg/mL (≈ 7.63 µM) in assay [2]. The IC50 in assay [3] is 84.9 nM.

For the compound `NC1(C2CN(CC3CC(=O)N(c4ccc(S(=O)(=O)N5CCN(c6cc(C(F)(F)F)cc(Cl)n6)CC5)cc4)C3)C2)CC1` (stereo not drawn) [Example 39, 4-[[3-(1-Aminocyclopropyl)azetidin-1-yl]methyl]-1-[4-[4-[6-chloro-4-(trifluoromethyl)-2-pyridyl]piperazin-1-yl]sulfonylphenyl]pyrrolidin-2-one], the MIC came to 0.96 µg/mL (≈ 1.57 µM) in assay [1] and 1.92 µg/mL (≈ 3.13 µM) in assay [2]. The compound further showed an IC50 in assay [3] of 13 nM.
